Experimental data from patent publication US20240352046A1, “ECTONUCLEOTIDE PYROPHOSPHATASE-PHOSPHODIESTERASE-1 (ENPP1) INHIBITORS AND USES THEREOF” (1cBio, Inc., priority 2020, published 2024).

Target: ENPP-1 (Ectonucleotide Pyrophosphatase/Phosphodiesterase 1) (Homo sapiens (Human), UniProt P22413)
Assay: ENPP1 inhibition assay (AMP Glo, cGAMP substrate)
Assay type: biochemical
Details: cGAMP 20 μM substrate, ENPP1 1 nM
Method: IC50 values of compounds against ENPP-1 (Ectonucleotide Pyrophosphatase/Phosphodiesterase 1) were determined at Integral BioSciences (India) using AMP Glo (Promega, Cat #V5011). Assay was performed in a 30 μL final volume in a white 96-well Half Area plate (Costar,Cat #3693). Dose response curve for the compounds were prepared in duplicates with starting conc. at 5 μM and a three-fold titration was performed. The reaction buffer consisted of 50 mM Tris (pH 8.0), 0.5 mM CaCl2), 1 μM ZnCl2, 250 mM NaCl and 0.1 mg/ml BSA. To the compound dilution, 15 μL of ENPP1 enzyme (R&D Systems; Cat #6136-EN-010) was added to each well (final conc. 1 nM) and the mix was pre-incubated for 15 min at RT. An equal volume (15 μL) containing cGAMP (Sigma, Cat #SML-1229) (final conc. 20 μM) was added to initiate the enzyme reaction and the reaction was incubated for 30 min at RT. The reaction was then stopped by heating at 90° C. for 3 minutes. 10 μl of reaction was then transferred to 384 well white, medium binding plates (Grenier, Cat #781075) to which 10 μl of AMP-Glo Reagent 1 was added and mixed well and incubated for 1 hour at 25° C. Following 60 min incubation, 20 μL of detection mixture was added to the enzyme reaction bringing the final volume to 40 μL. The reaction was further incubated for 60 min at RT after which the plates were read using BioTek Plate reader.
Analysis was done using the standard curve by non-linear regression, variable slope inhibitor curve fits (Graph-Pad Prism) and IC50's of compounds were determined wherever possible.

Chain of ENPP-1 (Ectonucleotide Pyrophosphatase/Phosphodiesterase 1) (P22413 whole entry): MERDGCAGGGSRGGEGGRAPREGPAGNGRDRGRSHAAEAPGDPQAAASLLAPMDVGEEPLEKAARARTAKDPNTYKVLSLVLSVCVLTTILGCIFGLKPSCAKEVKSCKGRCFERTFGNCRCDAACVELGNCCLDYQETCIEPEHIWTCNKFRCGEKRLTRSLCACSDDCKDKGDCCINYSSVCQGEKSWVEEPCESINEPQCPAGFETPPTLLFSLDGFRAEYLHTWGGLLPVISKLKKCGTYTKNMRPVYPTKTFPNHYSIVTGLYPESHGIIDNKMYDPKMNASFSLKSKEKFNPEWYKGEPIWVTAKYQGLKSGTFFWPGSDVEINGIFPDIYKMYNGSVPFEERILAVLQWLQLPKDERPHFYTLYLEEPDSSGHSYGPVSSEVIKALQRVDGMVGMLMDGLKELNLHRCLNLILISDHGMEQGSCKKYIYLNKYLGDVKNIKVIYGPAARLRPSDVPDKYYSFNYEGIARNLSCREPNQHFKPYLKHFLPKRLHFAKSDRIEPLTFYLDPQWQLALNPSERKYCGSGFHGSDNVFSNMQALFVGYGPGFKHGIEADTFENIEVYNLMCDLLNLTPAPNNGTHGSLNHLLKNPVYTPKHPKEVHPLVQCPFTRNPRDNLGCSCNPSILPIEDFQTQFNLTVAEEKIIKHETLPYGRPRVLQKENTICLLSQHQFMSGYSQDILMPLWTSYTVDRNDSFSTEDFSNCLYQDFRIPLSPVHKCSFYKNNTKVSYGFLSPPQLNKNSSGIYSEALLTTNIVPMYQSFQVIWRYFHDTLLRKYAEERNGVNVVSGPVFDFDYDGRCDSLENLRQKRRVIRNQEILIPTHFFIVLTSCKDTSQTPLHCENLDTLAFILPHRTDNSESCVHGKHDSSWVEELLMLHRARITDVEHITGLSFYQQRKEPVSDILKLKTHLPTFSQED

| SMILES | IC50 |
| --- | --- |
| COc1cc2ncnc(N3CC(/C=C/S(N)(=O)=O)C3)c2cc1OC [Compound 1.55, (E)-2-(1-(6,7-dimethoxyquinazolin-4-yl)azetidin-3-yl)ethenesulfonamide] | 0.036 µM |
| COc1ccc2c(N3CC(CCCS(N)(=O)=O)C3)ncnc2c1 [Compound 1.56, 3-(1-(7-methoxyquinazolin-4-yl)azetidin-3-yl)propane-1-sulfonamide] | 0.085 µM |
| COc1cc2ncnc(N3CC(CCNS(N)(=O)=O)(c4ccccc4)C3)c2cc1OC [Compound 1.58, 4-3-(2-(sulfamoylamino)ethyl)-3-phenylazetidin-1-yl-6,7-dimethoxyquinazoline] | 0.66 µM |
| Cc1ccn2ncnc(N3CC(CCB(O)O)C3)c12 [Compound 1.59, 2-(1-(5-methylpyrrolo[1,2-f][1,2,4]triazin-4-yl)azetidin-3-yl)ethylboronic acid] | > 3 µM |
| CCc1nc(N2CC(CCNS(N)(=O)=O)C2)c2cc(OC)c(OC)cc2n1 [Compound 1.61, 2-ethyl-6,7-dimethoxy-4-[3-[2-(sulfamoylamino)ethyl]azetidin-1-yl]quinazoline] | 0.097 µM |
| Cc1ccn2ncnc(N3CC4(CC(NS(N)(=O)=O)C4)C3)c12 [Compound 1.62] | 0.067 µM |
| COc1cc2ncnc(N3CC(CCCS(=O)(=O)O)C3)c2cc1OC [Compound 1.65, 3-(1-(6,7-dimethoxyquinazolin-4-yl)azetidin-3-yl)propane-1-sulfonic acid] | 0.078 µM |
| COc1cc2nncc(N3CC4(CC(N(C)S(N)(=O)=O)C4)C3)c2cc1OC [Compound 1.68, 4(6-N-methylsulfamoylamino)-2-azaspiro[3.3]heptan-2-yl-6,7-dimethoxycinnoline] | 0.003 µM |
| Cc1c(Br)cn2ncnc(N3CC(CCNS(N)(=O)=O)C3)c12 [Compound 1.72, 4-(3-(2-sulfamoylaminoethyl)azetidine-1-yl)-6-bromo-5-methylpyrrolo[1,2-f][1,2,4]triazine] | > 3 µM |
| Cc1ccn2ncnc(N3CC4(CC(N(C)S(N)(=O)=O)C4)C3)c12 [Compound 1.73] | 0.247 µM |
| Cc1c(Cl)cn2ncnc(N3CC4(CC(N(C)S(N)(=O)=O)C4)C3)c12 [Compound 1.75, N-[2-(6-chloro-5-methylpyrrolo[2,1-f][1,2,4]triazin-4-yl)-2-azaspiro[3.3]hept-6-yl]-N-methylsulfuric diamide] | 0.391 µM |
| Cc1cc(C)n2ncnc(N3CC4(CC(N(C)S(N)(=O)=O)C4)C3)c12 [Compound 1.77, N-(2-(5,7-dimethylpyrrolo[1,2-f][1,2,4]triazin-4-yl)-2-azaspiro[3.3]heptan-6-yl)-N-methylsulfamide] | 0.295 µM |
| Cc1c(C#N)cn2ncnc(N3CC4(CC(N(C)S(N)(=O)=O)C4)C3)c12 [Compound 1.78, N-(2-(6-cyano-5-methylpyrrolo[1,2-f][1,2,4]triazin-4-yl)-2-azaspiro[3.3]heptan-6-yl)-N-methylsulfamamide] | 0.964 µM |
| Cc1cc(Br)n2ncnc(N3CC4(CC(N(C)S(N)(=O)=O)C4)C3)c12 [Compound 1.79, N-(2-(7-bromo-5-methylpyrrolo[1,2-f][1,2,4]triazin-4-yl)-2-azaspiro[3.3]heptan-6-yl)-N-methylsulfamamide] | 0.053 µM |
| Cc1cc(F)n2ncnc(N3CC4(CC(N(C)S(N)(=O)=O)C4)C3)c12 [Compound 1.80, N-(2-(7-fluoro-5-methylpyrrolo[1,2-f][1,2,4]triazin-4-yl)-2-azaspiro[3.3]heptan-6-yl)-N-methylsulfamamide] | 0.616 µM |
| Cc1cc(Cl)n2ncnc(N3CC4(CC(N(C5CC5)S(N)(=O)=O)C4)C3)c12 [Compound 1.81, N-(2-(7-chloro-5-methylpyrrolo[2,1-f][1,2,4]triazin-4-yl)-2-azaspiro[3.3]heptan-6-yl)-N-cyclopropylsulfamamide] | 0.245 µM |
| Cc1cc(Cl)n2ncnc(N3CC4(CC(N(C(C)C)S(N)(=O)=O)C4)C3)c12 [Compound 1.82, N-(2-(7-chloro-5-methylpyrrolo[2,1-f][1,2,4]triazin-4-yl)-2-azaspiro[3.3]heptan-6-yl)-N-isopropylsulfamamide] | 1.89 µM |
| Cc1cc(Cl)n2ncnc(N3CC(CCN(C(C)C)S(N)(=O)=O)C3)c12 [Compound 1.83, N-(2-(1-(7-chloro-5-methylpyrrolo[2,1-f][1,2,4]triazin-4-yl)azetidin-3-yl)ethyl)-N-isopropylsulfamamide] | > 3 µM |

| SMILES | IC50 |
| --- | --- |
| Cc1cc(Cl)n2ncnc(N3CC(CCN(C)S(N)(=O)=O)C3)c12 [Compound 1.84, N-(2-(1-(7-chloro-5-methylpyrrolo[1,2-f][1,2,4]triazin-4-yl)azetidin-3-yl)ethyl)-N-methylsulfamide] | > 2.25 µM |
| Cc1cc(Cl)n2nc(C3CC3)nc(N3CC4(CC(N(C)S(N)(=O)=O)C4)C3)c12 [Compound 1.85] | > 2.39 µM |
| Cc1cc(Cl)n2ncnc(N3CC(CN(C)S(N)(=O)=O)C3)c12 [Compound 1.86] | 0.106 µM |
| COc1ccc2c(N3CC4(CC(N(C)S(N)(=O)=O)C4)C3)cnnc2c1 [Compound 1.87, N-(2-(7-methoxycinnolin-4-yl)-2-azaspiro[3.3]heptan-6-yl)-N-methylsulfamide] | 0.024 µM |
| Cc1cc(Cl)n2nc(C(F)F)nc(N3CC4(CC(N(C)S(N)(=O)=O)C4)C3)c12 [Compound 1.90] | > 3 µM |
| Cc1cc(C#N)n2ncnc(N3CC4(CC(N(C)S(N)(=O)=O)C4)C3)c12 [Compound 1.91, N-(2-(6-cyano-5-methylpyrrolo[1,2-f][1,2,4]triazin-4-yl)-2-azaspiro[3.3]heptan-6-yl)-N-methylsulfamamide] | > 3 µM |
| Cc1cc(Cl)n2ncnc(N3CC(CCN(C4CC4)S(N)(=O)=O)C3)c12 [Compound 1.92, N-(2-(1-(7-chloro-5-methylpyrrolo[2,1-f][1,2,4]triazin-4-yl)azetidin-3-yl)ethyl)-N-cyclopropylsulfamamide] | 1.51 µM |
| Cc1cc(Cl)n2ncnc(N3CC4(CC(N(CCC(F)(F)F)S(N)(=O)=O)C4)C3)c12 [Compound 1.93, N-(2-(7-chloro-5-methylpyrrolo[2,1-f][1,2,4]triazin-4-yl)-2-azaspiro[3.3]heptan-6-yl)-N-(3,3,3-trifluoropropyl)sulfamamide] | 0.019 µM |
| Cc1cc(Cl)n2ncnc(N3CC(CCN(C4CCC4)S(N)(=O)=O)C3)c12 [Compound 1.94, N-(2-(1-(7-chloro-5-methylpyrrolo[2,1-f][1,2,4]triazin-4-yl)azetidin-3-yl)ethyl)-N-cyclobutylsulfamamide] | > 3 µM |
| CCCN(CCC1CN(c2ncnn3c(Cl)cc(C)c23)C1)S(N)(=O)=O [Compound 1.95, N-(2-(1-(7-chloro-5-methylpyrrolo[2,1-f][1,2,4]triazin-4-yl)azetidin-3-yl)ethyl)-N-propylsulfamamide] | 1.88 µM |
| CN(C1CC2(C1)CN(c1nc(Cl)nc3c1cnn3C)C2)S(N)(=O)=O [Compound 1.96, N-(2-(6-chloro-1-methyl-1H-pyrazolo[3,4-d]pyrimidin-4-yl)-2-azaspiro[3.3]heptan-6-yl)-N-methylsulfamamide] | > 3 µM |
| CCCN(C1CC2(C1)CN(c1ncnn3c(Cl)cc(C)c13)C2)S(N)(=O)=O [Compound 1.97, N-(2-(7-chloro-5-methylpyrrolo[2,1-f][1,2,4]triazin-4-yl)-2-azaspiro[3.3]heptan-6-yl)-N-propylsulfamamide] | 0.036 µM |
| CCN(C1CC2(C1)CN(c1ncnn3c(Cl)cc(C)c13)C2)S(N)(=O)=O [Compound 1.98, N-(2-(7-chloro-5-methylpyrrolo[2,1-f][1,2,4]triazin-4-yl)-2-azaspiro[3.3]heptan-6-yl)-N-ethylsulfamamide] | 0.055 µM |
| Cc1cc(Cl)n2ncnc(N3CC4(CC(N(CC(F)F)S(N)(=O)=O)C4)C3)c12 [Compound 1.99, N-(2-(7-chloro-5-methylpyrrolo[2,1-f][1,2,4]triazin-4-yl)-2-azaspiro[3.3]heptan-6-yl)-N-(2,2-difluoroethyl)sulfamamide] | 0.01 µM |
| CN(C1CC2(C1)CN(c1ncnc3scc(-c4ccccc4)c13)C2)S(N)(=O)=O [Compound 1.100, N-methyl-N-(2-(5-phenylthieno[2,3-d]pyrimidin-4-yl)-2-azaspiro[3.3]heptan-6-yl)sulfamamide] | > 3 µM |
| Cc1cc(Cl)n2nc(C(C)C)nc(N3CC4(CC(N(C)S(N)(=O)=O)C4)C3)c12 [Compound 1.101, N-(2-(7-chloro-2-isopropyl-5-methylpyrrolo[1,2-f][1,2,4]triazin-4-yl)-2-azaspiro[3.3]heptan-6-yl)-N-methylsulfamide] | > 3 µM |
| CCCN(C1CC2(C1)CN(c1nc(C)nn3c(Cl)cc(C)c13)C2)S(N)(=O)=O [Compound 1.103, N-(2-(7-chloro-2,5-dimethylpyrrolo[1,2-f][1,2,4]triazin-4-yl)-2-azaspiro[3.3]heptan-6-yl)-N-propylsulfatamide] | 0.59 µM |
| CN(C1CC2(C1)CN(c1ncnc3c1cnn3C)C2)S(N)(=O)=O [Compound 1.105, N-methyl-N-(2(1-methyl-1H-pyrazolo[3,4-d]pyrimidin-4-yl)-2-azaspiro[3.3]heptan-6-yl)sulfamamide] | 0.091 µM |
